In experiment [1] the test system is HCT116 human colorectal carcinoma. The experiment is described as follows: Cell proliferation assay, HCT116. Conditions: HCT-116, HCT116, 72h exposure, CellTiter-Glo, read-out: EC50 in the cell proliferation assay, HCT116 cell line. In kind it is cell-based. On the procedure:
(§1) Compounds are tested in a cell proliferation assay using the following cell lines:
(§2) HCT116 human colorectal carcinoma (ATCC)
(§3) Both cell lines are maintained in DMEM/F12 (1:1) media (Gibco) supplemented with 10% FCS at 37° C. in a 5% CO2 humidified incubator.
(§4) Cells are seeded in 96-well plates at 2,000 cells/well and after 24 hours they are exposed to different concentrations of compounds in 0.83% DMSO. Cells are grown for a further 72h, and an equal volume of CellTiter-Glo reagent (Promega) is added to each well. This lyses the cells and generates a luminescent signal proportional to the amount of ATP released (and therefore proportional to the number of cells in the well) that can be detected using a multi-well luminometer.
(§5) The EC50 is defined as the concentration at which a given compound achieves 50% inhibition of control. IC50 values are calculated using the XLfit software package (version 2.0.5).
Background: ATP-based viability assays read luminescence as a measure of living cells.

Experiment [2] concerns phospho-ERK in HCT116 human colorectal carcinoma. The experiment is described as follows: Phospho-ERK cell-based assay, HCT116. Conditions: HCT-116, HCT116, 2 h or 24 h exposure, p-ERK signal normalised to PI, read-out: EC50 in the phospho-ERK cell-based assay, HCT116 cell line. On the procedure: (§6) Compounds are tested in a cell-based phospho-ERK ELISA using the following cell lines:
as §2, §3
(§7) Cells are seeded in 96-well plates at 2,000 cells/well and after 24 h they are exposed to different concentrations of compounds in 0.83% DMSO. Cells are grown for a further 2 h or 24 h, fixed with formaldehyde (2% final) and permeabilised with methanol. Following blocking with TBST-3% BSA, fixed cells are incubated with primary antibody (anti-phospho ERK from rabbit) over-night at 4° C. Cells are incubated with Propidium Iodide (DNA fluorescent dye) and detection of cellular p-ERK is performed using an anti-rabbit secondary antibody conjugated to the fluorescent Alexa Fluor 488 dye (Molecular probes). The fluorescence is analysed using the Acumen Explorer (TTP Labtech), a laser-scanning microplate cytometer, and the Alexa Fluor 488 signal is normalised to the PI signal (proportional to cell number).
(§8) The EC50 is defined as the concentration at which a given compound achieves a signal half way between the baseline and the maximum response. EC50 values are calculated using the XLfit software package (version 2.0.5).

Experiment [3] has as its system A375 human malignant melanoma. The experiment is described as follows: Cell proliferation assay, A375. The note with it: A-375, A375, 72h exposure, CellTiter-Glo, read-out: EC50 in the cell proliferation assay, A375 cell line. The class given is cell-based. On the procedure: as §1
(§9) A375 human malignant melanoma (ATCC)
as §3, §4, §5

Experiment [4] has as its system phospho-ERK in A375 human malignant melanoma. Nature of the experiment: Phospho-ERK cell-based assay, A375. Conditions: A-375, A375, 2 h or 24 h exposure, p-ERK signal normalised to PI, read-out: EC50 in the phospho-ERK cell-based assay, A375 cell line. As to the method:
as §6, §9, §3, §7, §8

The structures appear in SMILES notation.

As to `O=C(NOCCO)c1ccc2[nH]ncc2c1Nc1ccc(I)cc1F` [Example 5, 4-(2-Fluoro-4-iodo-phenylamino)-1H-indazole-5-carboxylic acid (2-hydroxy-ethoxy)-amide], the values for the EC50 in experiment [1], in experiment [2] and in experiment [3] were under 500 nM, under 100 nM and under 100 nM, respectively.
For the compound `O=C(NOCCO)c1cnc2[nH]ncc2c1Nc1ccc(I)cc1F` [Example 6, 4-(2-Fluoro-4-iodophenylamino)-1H-pyrazolo[3,4-b]pyridine 5-carboxylic acid (2-hydroxyethoxy)-amide], the EC50 in experiment [1] was under 500 nM; in experiment [2], under 100 nM; in experiment [4], under 100 nM; in experiment [3] it was under 100 nM.
For `C[C@H](O)CONC(=O)c1cnc2[nH]ncc2c1Nc1ccc(I)cc1F` [Example 7, 4-(2-Fluoro-4-iodophenylamino)-1H-pyrazolo[3,4-b]pyridine 5-carboxylic acid ((S)-2-hydroxypropoxy)-amide], the EC50 in experiment [1] was under 500 nM; in experiment [2], under 100 nM; in experiment [4] it was under 100 nM; in experiment [3] it was under 100 nM.
In the case of `CC(C)(CO)ONC(=O)c1cnc2[nH]ncc2c1Nc1ccc(I)cc1F` [Example 8, 4-(2-Fluoro-4-iodophenylamino)-1H-pyrazolo[3,4-b]pyridine-5-carboxylic acid (2-hydroxy-1,1-dimethylethoxy)-amide], the EC50 is under 600 nM in experiment [1], under 100 nM in experiment [2], under 100 nM in experiment [4] and under 100 nM in experiment [3].
For `O=C(NOC[C@H](O)CO)c1ccc2[nH]ncc2c1Nc1ccc(I)cc1F` [Example 9, 4-(2-Fluoro-4-iodophenylamino)-1H-indazole-5-carboxylic acid ((R)-2,3-dihydroxy-propoxy)-amide], the EC50 was under 500 nM in experiment [1], under 100 nM in experiment [2], under 100 nM in experiment [4] and under 100 nM in experiment [3].
Turning to `O=C(NOCCO)c1ccc2[nH]ncc2c1Nc1ccc(Br)cc1F` [Example 10, 4-(4-Bromo-2-fluoro-phenylamino)-1H-indazole-5-carboxylic acid (2-hydroxy-ethoxy)-amide], the EC50 in experiment [1] was under 500 nM; in experiment [2] it was under 100 nM; in experiment [4], under 100 nM; in experiment [3] it was under 100 nM.
Turning to `C[C@H](O)CONC(=O)c1ccc2[nH]ncc2c1Nc1ccc(Br)cc1F` [Example 11, 4-(4-Bromo-2-fluoro-phenylamino)-1H-indazole-5-carboxylic acid ((S)-2-hydroxy-propoxy)-amide], the EC50 is under 500 nM in experiment [1], under 100 nM in experiment [2], under 100 nM in experiment [4] and under 100 nM in experiment [3].
With `O=C(NOCCO)c1ccc2sncc2c1Nc1ccc(I)cc1F` [Example 12, 4-(2-Fluoro-4-iodo-phenylamino)-benzo[d]isothiazole-5-carboxylic acid (2-hydroxy-ethoxy)-amide], the EC50 in experiment [1] is under 500 nM; in experiment [2], under 100 nM; in experiment [4], under 100 nM; in experiment [3] it was under 100 nM.
Consider `CSc1ccc(Nc2c(C(=O)NOCCO)ccc3[nH]ncc23)c(F)c1` [Example 13, 4-(2-Fluoro-4-methylsulfanyl-phenylamino)-1H-indazole-5-carboxylic acid (2-hydroxy-ethoxy)-amide], for which the EC50 was under 500 nM in experiment [1] and under 100 nM in experiment [2].
Turning to `CCONC(=O)c1ccc2[nH]ncc2c1Nc1ccc(I)cc1F` [Example 14, 4-(2-Fluoro-4-iodo-phenylamino)-1H-indazole-5-carboxylic acid ethoxy-amide], the EC50 in experiment [1] is under 500 nM; in experiment [2], under 100 nM; in experiment [4], under 100 nM; in experiment [3], under 100 nM.
Consider `O=C(NOCC1CC1)c1ccc2[nH]ncc2c1Nc1ccc(I)cc1F` [Example 16, 4-(2-Fluoro-4-iodo-phenylamino)-1H-indazole-5-carboxylic acid cyclopropylmethoxy-amide], for which the EC50 in experiment [2] was under 100 nM.
As for `CONC(=O)c1ccc2[nH]ncc2c1Nc1ccc(I)cc1F` [Example 17, 4-(2-Fluoro-4-iodo-phenylamino)-1H-indazole-5-carboxylic acid methoxy-amide], the EC50 in experiment [1] was under 500 nM; in experiment [2] it was under 100 nM; in experiment [4], under 100 nM; in experiment [3], under 100 nM.
`C[C@H](O)CONC(=O)c1ccc2sncc2c1Nc1ccc(I)cc1F` [Example 20, 4-(2-Fluoro-4-iodo-phenylamino)-benzo[d]isothiazole-5-carboxylic acid ((S)-2-hydroxy-propoxy)-amide]: the EC50 was under 500 nM in experiment [1], under 100 nM in experiment [2], under 100 nM in experiment [4] and under 100 nM in experiment [3].
For the compound `O=C(NOC[C@H](O)CO)c1ccc2sncc2c1Nc1ccc(I)cc1F` [Example 21, 4-(2-Fluoro-4-iodo-phenylamino)-benzo[d]isothiazole-5-carboxylic acid ((R)-2,3-dihydroxy-propoxy)-amide], the EC50 was under 500 nM in experiment [1], under 100 nM in experiment [2], under 100 nM in experiment [4] and under 100 nM in experiment [3].
In the case of `CSc1ccc(Nc2c(C(=O)NOC[C@H](O)CO)ccc3cnsc23)c(F)c1` [Example 22, 7-(2-Fluoro-4-methylsulfanyl-phenylamino)-benzo[d]isothiazole-6-carboxylic acid ((R)-2,3-dihydroxy-propoxy)-amide], the EC50 was under 500 nM in experiment [1], under 100 nM in experiment [2], under 100 nM in experiment [4] and under 100 nM in experiment [3].
For `O=C(NOC[C@H](O)CO)c1ccc2cnsc2c1Nc1ccc(C2CC2)cc1F` [Example 23, 7-(4-Cyclopropyl-2-fluoro-phenylamino)-benzo[d]isothiazole-6-carboxylic acid ((R)-2,3-dihydroxy-propoxy)-amide], the EC50 in experiment [4] and in experiment [3] was under 100 nM throughout.
Regarding `O=C(NOC[C@H](O)CO)c1ccc2cnsc2c1Nc1ccc(Br)cc1F` [Example 24, 7-(4-Bromo-2-fluoro-phenylamino)-benzo[d]isothiazole-6-carboxylic acid ((R)-2,3-dihydroxy-propoxy)-amide], the EC50 was under 500 nM in experiment [1], under 100 nM in experiment [2], under 100 nM in experiment [4] and under 100 nM in experiment [3].
Consider `O=C(NOCCO)c1ccc2cnsc2c1Nc1ccc(Br)cc1F` [Example 25, 7-(4-Bromo-2-fluoro-phenylamino)-benzo[d]isothiazole-6-carboxylic acid (2-hydroxy-ethoxy)-amide], for which the EC50 in experiment [1] was under 500 nM; in experiment [2], under 100 nM; in experiment [4], under 100 nM; in experiment [3], under 100 nM.
Take `O=C(NOCCO)c1ccc2cnsc2c1Nc1ccc(I)cc1F` [Example 26, 7-(2-Fluoro-4-iodo-phenylamino)-benzo[d]isothiazole-6-carboxylic acid (2-hydroxy-ethoxy)-amide]: the EC50 in experiment [2] and in experiment [4] was under 100 nM throughout.
Take `O=C(NOC[C@H](O)CO)c1ccc2cnsc2c1Nc1ccc(I)cc1F` [Example 27, 7-(2-Fluoro-4-iodo-phenylamino)-benzo[d]isothiazole-6-carboxylic acid ((R)-2,3-dihydroxy-propoxy)amide]: the EC50 in experiment [1] is under 500 nM; in experiment [2] it was under 100 nM; in experiment [4], under 100 nM; in experiment [3], under 100 nM.

Values taken from patent US8841462B2, “Bicyclic heterocycles as MEK kinase inhibitors” (priority 2008, dated 2014).
